Here are results for 23 compounds from ChEMBL document CHEMBL1126468, “Antineoplastic bicyclicsulfonylureas” (Bioorg Med Chem Lett, 1992).

Broadly, the inhibition in vivo is the share of the control response that was lost under treatment.

Common to all, as to type: functional
A short description of experiment [1]: Inhibition of tumor growth in 6C3HED lymphosarcoma inoculated mice following 150 mg/kg p.o. o.d. Particulars: Mus musculus, route oral.
Experiment [2] has as its system Mus musculus. Description: Percent inhibition is the ratio of tumor weight of treated animals at a dose 160 mg/kg given daily to 8 mice perorally versus the untreated control mice infected with 6C3HED lymphosarcoma. Particulars: route oral.
Experiment [3] relates to Mus musculus. The experiment can be described thus: Percent inhibition is the ratio of tumor weight of treated animals at a dose 80 mg/kg given daily to 8 mice perorally versus the untreated control mice infected with 6C3HED lymphosarcoma. As to conditions: route oral.

Structures are written as SMILES.

`Cc1cc(S(=O)(=O)NC(=O)Nc2ccc(Cl)cc2)cc2ccoc12` displayed an inhibition in vivo at 150 mg/kg in experiment [1] of 89%.
With `O=C(Nc1ccc(Cl)cc1)NS(=O)(=O)c1cc2cc(Cl)ccc2o1`, in experiment [1], at 150 mg/kg the inhibition in vivo was 40%.
With `Cc1ccc2oc(S(=O)(=O)NC(=O)Nc3ccc(Cl)cc3)cc2c1`, testing at 150 mg/kg in experiment [1] gave an inhibition in vivo of 6%.
Consider `COc1ccc2oc(S(=O)(=O)NC(=O)Nc3ccc(Cl)cc3)cc2c1`, for which the inhibition in vivo at 150 mg/kg in experiment [1] stood at 25%.
Take `O=C(Nc1ccc(Cl)cc1)NS(=O)(=O)c1ccc2ccoc2c1`: the inhibition in vivo at 160 mg/kg in experiment [2] was determined as 100%.
In turn, `Cc1coc2ccc(S(=O)(=O)NC(=O)Nc3ccc(Cl)cc3)cc12` returned an inhibition in vivo at 150 mg/kg in experiment [1] of 44%.
The same measure, in the same setting: next, `O=C(Nc1ccc(Cl)c(Cl)c1)NS(=O)(=O)c1cc2ccccc2o1`: 28%; `O=C(Nc1ccc(Cl)cc1)NS(=O)(=O)c1csc2ccccc12`: 43%.
As for `Cc1ccc2sc(S(=O)(=O)NC(=O)Nc3ccc(Cl)cc3)cc2c1`, in experiment [1], 150 mg/kg produced 10% inhibition in vivo.
Consider `O=C(Nc1ccc(Cl)cc1)NS(=O)(=O)c1cc2ccccc2[nH]1`, for which the inhibition in vivo at 150 mg/kg in experiment [1] was 26%.
The same measure, in the same setting: with `Cc1ccc(NC(=O)NS(=O)(=O)c2cc3ccccc3o2)cc1` the figure was 11%.
The same measure, in the same setting: with `COc1cc(S(=O)(=O)NC(=O)Nc2ccc(Cl)cc2)cc2ccoc12` the figure was 51%.
On the same count and under the same terms, next, `Cc1cc2cc(S(=O)(=O)NC(=O)Nc3ccc(Cl)cc3)ccc2o1`: 57%; `Cc1cccc2cc(S(=O)(=O)NC(=O)Nc3ccc(Cl)cc3)oc12`: 21%; `O=C(Nc1ccc(Cl)cc1)NS(=O)(=O)c1cc2ccccc2o1`: 84%.
In the case of `O=C(Nc1ccc(Cl)cc1)NS(=O)(=O)c1cc2ccccc2s1`, testing at 150 mg/kg in experiment [1] gave an inhibition in vivo of 47%.
In experiment [1], `O=C(Nc1ccc(Br)cc1)NS(=O)(=O)c1cc2ccccc2o1` had an inhibition in vivo at 150 mg/kg of 48%.
On the same count and under the same terms, next, `O=C(Nc1ccc(Cl)cc1)NS(=O)(=O)c1ccc2cc[nH]c2c1`: 37%; `O=C(Nc1ccc(Cl)cc1)NS(=O)(=O)c1cccc2occc12`: 84%.
`O=C(Nc1ccc(Cl)cc1)NS(=O)(=O)c1ccc2occc2c1`: in experiment [1], the inhibition in vivo at 150 mg/kg amounted to 100%.
The compound `Cc1ccc(NC(=O)NS(=O)(=O)c2ccc3occc3c2)cc1` came in with an inhibition in vivo at 150 mg/kg in experiment [1] of 84%.
For `O=C(Nc1ccc(Cl)cc1)NS(=O)(=O)c1ccc2sccc2c1`, in experiment [3], the inhibition in vivo at 80 mg/kg was found to be 44%.
As to `O=C(Nc1ccc(Cl)cc1)NS(=O)(=O)c1cc2cccc(Br)c2o1`, the inhibition in vivo at 150 mg/kg in experiment [1] came out at 18%.
